# In patent publication US20230000869A1, “NOVEL ALK2 INHIBITORS AND METHODS FOR INHIBITING BMP SIGNALING” (The Brigham and Women's Hospital, Inc., priority 2017, published 2023):
# Assays:
# [1] = molecular target: T1, ALK6 (Homo sapiens, UniProt O00238); test: TR-FRET enzymatic assay, ALK6 kinase, 1536-well; format: biochemical; settings: for IC50: 10 nM ALK, Ulight topo II substrate 50 nM, ATP 10 uM (Table 1); for ALK6 Span: span of the concentration-response curve
# T1 construct: purchased Life technology (Fredrick, Md.) and/or CARNA BIOSCIENCES Inc. (Kobe, Japan)
# T1 sequence (O00238 14-502): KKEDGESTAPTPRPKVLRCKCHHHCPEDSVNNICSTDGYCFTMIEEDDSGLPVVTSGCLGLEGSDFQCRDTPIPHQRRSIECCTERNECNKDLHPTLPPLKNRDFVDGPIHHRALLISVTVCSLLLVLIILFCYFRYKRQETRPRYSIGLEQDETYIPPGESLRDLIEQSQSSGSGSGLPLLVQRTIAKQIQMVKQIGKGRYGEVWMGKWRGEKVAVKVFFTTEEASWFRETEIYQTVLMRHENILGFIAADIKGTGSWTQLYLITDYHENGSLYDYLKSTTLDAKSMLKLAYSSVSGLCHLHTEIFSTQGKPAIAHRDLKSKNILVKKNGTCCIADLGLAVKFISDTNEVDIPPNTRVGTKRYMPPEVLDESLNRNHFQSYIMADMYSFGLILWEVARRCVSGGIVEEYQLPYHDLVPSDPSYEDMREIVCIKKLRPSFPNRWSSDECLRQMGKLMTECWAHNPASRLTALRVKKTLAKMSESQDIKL
# From the text: (§1) We have developed six ALK kinase enzyme assays for determination of compound activities on ALK1, ALK2, ALK3, ALK4, ALK5 and ALK6. For the assay development, we had tested a number of substrates and assay conditions that led to the final optimized assay protocols with good assay windows with signal to basal (S/B) ratios above 20 fold for all six ALK assays (FIG. 1). In our knowledge, these ALK kinase assays have not been reported elsewhere.
# (§2) ALK1 and ALK2-ALK6 were obtained from Life technology (Fredrick, Md.) and CARNA BIOSCIENCES Inc. (Kobe, Japan). Ulight-DNA Topoisomerase 2 alpha (Thr-1342) peptide and Europium anti-phospho-DNA Topoisomerase 2 alpha (Thr-1342) antibody was from Perkin Elmer Inc. The kinase buffer was composed of 50 mM HEPES pH7.0, 10 mM MgCl2, 3 mM MnCl2, 0.005% Tween-20 and 2 mM DTT. The compound plates and the white solid MB assay plates were purchased from Greiner Bio-one (Monroe, N.C.).
# (§3) The binding of Eu-anti-phospho-peptide antibody to the phosphorylated Ulight peptide substrate bring both Eu donor and Ulight acceptor dye into close proximity. Upon excitation at 320-340 nm, the emission energy from Eu donor is transferred to Ulight acceptor dye that will generate light at 665 nm. The intensity light emission is proportional to the level of the peptide phosphorylation by ALKs. The assay was optimized and performed in 1536 plate (Table 1). Briefly, the ALKs enzymatic assay was initiated by dispense 2.5 ul enzyme with a final concentration at 10 nM prepared in 1× kinase reaction buffer. The assay plate was then added with compounds with the Pintool station (23 nl/well compound dilutions in DMSO solution) that was followed by incubation at room temperature for 10 minutes. Then 2.5 ul/well substrate was added in which 50 nM peptide substrate mixed with 10 uM, 100 uM or 1 mM ATP (final concentration). The assay plate was incubated at room temperature for 60 minutes and the kinase reaction was stopped by addition of 5 ul/well of 4 nM Eu-anti-phospho-peptide antibody with 12 mM EDTA prepared in 1× detection buffer. The assay plate was measured in an EnVision plate reader (Perkin Elmer) in the TR-FRET detection mode (excitation at 340 nm and emission at 665 nm).
# [2] = tested on: TGFβ; test: Luciferase reporter gene assay for TGFβ activity (HEK293T SBE-Luc SMAD2/3 reporter, TGFβ agonist); format: cell-based; settings: Homo sapiens, HEK-293T, TGFβ 5 ng/mL
# Summary of the method: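 TGFβ activity was measured in HEK293T SBE-Luc cells stimulated with 5 ng/mL TGFβ, at compound 10000-30 nM final. ALK2 activity was measured in C2C12 BRE-Luc cells stimulated with 50 ng/mL BMP6, at compound 1000-0.3 nM final. Compound was preincubated 45 min in 2% FBS medium; after ≥18 h agonist exposure, luminescence was read and inhibition expressed as % signal loss versus background-subtracted agonist controls.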
# [3] = molecular target: ACVR2A (Homo sapiens, UniProt P27037); test: LanthaScreen Eu kinase binding assay, BMP type II receptor ACVR2A; settings: 10-point titration from 10 μM, 3-fold serial dilution, Life Technologies
# Chain of ACVR2A (P27037 20-513): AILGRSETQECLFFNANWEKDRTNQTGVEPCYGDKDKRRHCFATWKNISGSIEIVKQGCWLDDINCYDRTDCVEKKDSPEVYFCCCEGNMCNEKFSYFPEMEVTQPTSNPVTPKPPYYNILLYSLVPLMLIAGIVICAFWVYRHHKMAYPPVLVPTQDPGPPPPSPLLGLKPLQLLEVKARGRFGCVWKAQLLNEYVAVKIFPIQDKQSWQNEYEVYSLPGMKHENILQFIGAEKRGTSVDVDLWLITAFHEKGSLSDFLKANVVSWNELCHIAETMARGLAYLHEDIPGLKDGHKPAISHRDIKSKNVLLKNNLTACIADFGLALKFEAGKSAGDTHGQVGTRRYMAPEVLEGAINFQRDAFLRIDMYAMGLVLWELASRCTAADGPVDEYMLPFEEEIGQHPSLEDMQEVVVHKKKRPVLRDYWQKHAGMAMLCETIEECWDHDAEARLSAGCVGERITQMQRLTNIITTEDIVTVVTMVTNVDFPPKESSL
# From the text: For the detailed description of LanthaScreen™ Eu kinase binding assay condition, please see: https://www.thermofisher.com/us/en/home/industrial/pharma-biopharma/drug-discovery-development/target-and-lead-identification-and-validation/kinasebiology/kinase-activity-assays/lanthascreentm-eu-kinas e-binding-assay/lanthascreen-eu-kinase-binding-assay-validation-table.html.
# [4] = molecular target: T2, ALK4 (Homo sapiens, UniProt P36896); test: TR-FRET enzymatic assay, ALK4 kinase, 1536-well; format: biochemical; settings: for IC50: 10 nM ALK, Ulight topo II substrate 50 nM, ATP 10 uM (Table 1); for ALK4 Span: span of the concentration-response curve
# T2 construct: purchased Life technology (Fredrick, Md.) and/or CARNA BIOSCIENCES Inc. (Kobe, Japan)
# T2 sequence (P36896 24-505): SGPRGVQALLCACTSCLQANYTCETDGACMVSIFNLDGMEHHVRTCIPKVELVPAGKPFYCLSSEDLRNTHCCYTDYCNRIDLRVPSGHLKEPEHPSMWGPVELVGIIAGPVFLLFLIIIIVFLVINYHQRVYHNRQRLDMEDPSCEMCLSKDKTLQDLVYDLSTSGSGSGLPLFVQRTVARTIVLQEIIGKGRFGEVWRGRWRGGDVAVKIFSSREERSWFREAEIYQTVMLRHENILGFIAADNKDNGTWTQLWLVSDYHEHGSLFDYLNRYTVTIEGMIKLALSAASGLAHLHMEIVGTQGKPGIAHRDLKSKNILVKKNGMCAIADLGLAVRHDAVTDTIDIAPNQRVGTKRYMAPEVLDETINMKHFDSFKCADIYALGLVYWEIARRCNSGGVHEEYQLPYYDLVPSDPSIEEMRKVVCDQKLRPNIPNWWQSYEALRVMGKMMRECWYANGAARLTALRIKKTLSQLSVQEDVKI
# From the text: as §1, §2, §3
# [5] = tested on: TGFb; test: Cell assay HTRF TGFb (Table 15); format: cell-based; settings: read-out: HRTF TGFb (IC50)
Structure (SMILES),IC50 [1] [nM],ALK6 Span [1],IC50 [2] [nM],IC50 [4] [nM],ALK4 Span [4],IC50 [3] [nM],IC50 [5] [nM]
c1ccc2c(-c3cnn4cc(-c5ccc(N6CCNCC6)cc5)cnc34)ccnc2c1 [TRND00262637-13],,,,,,14.5,9290
"COc1cc2c(-c3cnn4cc(N5CCC(N6CCN(C)CC6)CC5)cnc34)ccnc2cc1F [Compound 15, 7-fluoro-6-methoxy-4-(6-(4-(4-methylpiperazin-1-yl)piperidin-1-yl)pyrazolo[1,5-a]pyrimidin-3-yl)quinoline]",10300,80.81,284,4210,101,,

# Further lines, with some results ahead:
IC50 [1] [nM],ALK6 Span [1],IC50 [2] [nM],IC50 [4] [nM],ALK4 Span [4],Structure (SMILES),IC50 [3] [nM],IC50 [5] [nM]
2400,86.5,22,994,96.6,Cc1cc(-c2cnn3cc(N4CCC(N5CCN(C)CC5)CC4)cnc23)c2ccccc2n1 [Compound 8],1280,2040
2980,89.9,55,1030,100.0,Cc1cc(-c2cnn3cc(N4CCC(N5CCOCC5)CC4)cnc23)c2ccccc2n1 [Compound 11],,
4060,91.28,27,2030,101.1,Cc1cc(-c2cnn3cc(N4CCC(N5CCNCC5)CC4)cnc23)c2ccccc2n1 [Compound 34],,
